According to PubChem BioAssay (NCI):
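The compound was tested at five concentrations on cells cultured in 96-well plates, with a 48-hour exposure period. The concentration for full growth arrest is given as TGI.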

Key:
Assay in all cases: NCI tumour cell line growth inhibition, 48 h
[1] = test system: UO-31 renal
[2] = test system: CCRF-CEM leukemia
[3] = test system: MALME-3M melanoma
[4] = test system: KM20L2 colon
[5] = test system: HCT-15 colon
[6] = test system: RPMI-8226 leukemia
[7] = test system: HCC-2998 colon
[8] = test system: IGROV1 ovarian
[9] = test system: OVCAR-3 ovarian
[10] = test system: SK-MEL-5 melanoma
[11] = test system: M14 melanoma
[12] = test system: A549 NSCLC
[13] = test system: COLO 205 colon
[14] = test system: HL-60(TB) leukemia
[15] = test system: DMS 114 small cell lung
[16] = test system: DMS 273 small cell lung
[17] = test system: LOX IMVI melanoma
[18] = test system: U251 CNS
[19] = test system: SR leukemia
[20] = test system: UACC-62 melanoma
[21] = test system: EKVX NSCLC
[22] = test system: SK-OV-3 ovarian
[23] = test system: A498 renal
[24] = test system: SF-539 CNS
[25] = test system: MOLT-4 leukemia
[26] = test system: NCI-H23 lung
[27] = test system: SF-295 CNS
[28] = test system: M19-MEL melanoma
[29] = test system: SK-MEL-2 melanoma
[30] = test system: UACC-257 melanoma
[31] = test system: 786-0 renal
[32] = test system: CAKI-1 renal
[33] = test system: SN12C renal
[34] = test system: HCT-116 colon
[35] = test system: HT29 colon
[36] = test system: RXF-631 renal
[37] = test system: DLD-1 colon
[38] = test system: HOP-18 NSCLC
[39] = test system: ACHN renal
[40] = test system: HOP-62 NSCLC
[41] = test system: OVCAR-4 ovarian
[42] = test system: NCI-H226 lung
[43] = test system: SK-MEL-28 melanoma
[44] = test system: LXFL 529 NSCLC
[45] = test system: SNB-78 CNS
[46] = test system: HOP-92 NSCLC
[47] = test system: OVCAR-8 ovarian
[48] = test system: SW-620 colon
[49] = test system: SNB-75 CNS
[50] = test system: TK-10 renal
[51] = test system: SF-268 CNS
[52] = test system: SNB-19 CNS
[53] = test system: NCI-H522 lung
[54] = test system: OVCAR-5 ovarian
[55] = test system: K-562 leukemia
[56] = test system: KM12 colon
[57] = test system: RXF 393 renal
[58] = test system: NCI-H460 lung

`CCOc1ccc(NC(=O)/C(=C\c2ccc(C)cc2)C(C)=O)cc1` was tested, and the TGI [1] was > 100 µM, the TGI [2] was > 100 µM and the TGI [3] was > 100 µM. For the same compound, the TGI [4] was > 100 µM, the TGI [5] was > 100 µM and the TGI [6] was > 100 µM. The TGI [7] was > 100 µM, the TGI [8] was > 100 µM and the TGI [9] was > 100 µM. The TGI [10] was > 100 µM, the TGI [11] was > 100 µM and the TGI [12] was > 100 µM. For the same compound, the TGI [13] was > 100 µM, the TGI [14] was > 100 µM and the TGI [15] was > 100 µM. For the same compound, the TGI [16] was > 100 µM, the TGI [17] was > 100 µM and the TGI [18] was > 100 µM. The TGI [19] was > 100 µM, the TGI [20] was > 100 µM and the TGI [21] was > 100 µM. For the same compound, the TGI [22] was > 100 µM, the TGI [23] was > 100 µM and the TGI [24] was > 100 µM. For the same compound, the TGI [25] was > 100 µM, the TGI [26] was > 100 µM and the TGI [27] was > 100 µM. The TGI [28] was > 100 µM, the TGI [29] was > 100 µM and the TGI [30] was > 100 µM. For the same compound, the TGI [31] was > 100 µM, the TGI [32] was > 100 µM and the TGI [33] was > 100 µM. The TGI [34] was > 100 µM, the TGI [35] was > 100 µM and the TGI [36] was > 100 µM. For the same compound, the TGI [37] was > 100 µM, the TGI [38] was > 100 µM and the TGI [39] was > 100 µM. For the same compound, the TGI [40] was > 100 µM, the TGI [41] was > 100 µM and the TGI [42] was > 100 µM. The TGI [43] was > 100 µM, the TGI [44] was > 100 µM and the TGI [45] was > 100 µM. The TGI [46] was > 100 µM, the TGI [47] was > 100 µM and the TGI [48] was > 100 µM. The TGI [49] was > 100 µM, the TGI [50] was > 100 µM and the TGI [51] was > 100 µM. The TGI [52] was > 100 µM, the TGI [53] was > 100 µM and the TGI [54] was > 100 µM. For the same compound, the TGI [55] was > 100 µM.

Work on `Cn1cnc([N+](=O)[O-])c1Sc1nc2ccccc2s1` yielded a TGI [1] of 21.5 µM, a TGI [3] of 13.2 µM and a TGI [56] of 29.3 µM. The TGI [4] was 23.5 µM, the TGI [5] was 14.6 µM and the TGI [57] was 8.22 µM. For the same compound, the TGI [6] was 43.1 µM, the TGI [7] was 22 µM and the TGI [8] was 25.2 µM. The TGI [9] was 14.5 µM, the TGI [10] was 27.1 µM and the TGI [11] was 29 µM. For the same compound, the TGI [12] was 22.8 µM, the TGI [13] was 14.5 µM and the TGI [15] was 14.9 µM. For the same compound, the TGI [16] was 2.71 µM, the TGI [17] was 31 µM and the TGI [18] was 24.4 µM. It also gave a TGI [19] of 13.2 µM, a TGI [20] of 25.7 µM and a TGI [21] of 17.8 µM. The TGI [22] was 29.5 µM, the TGI [24] was 25.1 µM and the TGI [25] was 4.91 µM. The TGI [26] was 23.9 µM, the TGI [27] was 44.6 µM and the TGI [28] was 24.3 µM. For the same compound, the TGI [31] was 24.7 µM, the TGI [32] was 6.9 µM and the TGI [33] was 17.6 µM. For the same compound, the TGI [34] was 18.7 µM, the TGI [35] was 28.5 µM and the TGI [36] was 16.9 µM. The TGI [37] was 18.1 µM, the TGI [38] was 0.902 µM and the TGI [39] was 28.8 µM. It also gave a TGI [40] of 86.1 µM, a TGI [41] of 13.1 µM and a TGI [42] of 22.1 µM. It also gave a TGI [43] of 21.1 µM, a TGI [44] of 24.7 µM and a TGI [45] of 33 µM. For the same compound, the TGI [58] was 24.3 µM, the TGI [46] was 14.3 µM and the TGI [47] was 17.6 µM. For the same compound, the TGI [48] was 15.1 µM, the TGI [49] was 29.3 µM and the TGI [51] was 20.7 µM. For the same compound, the TGI [52] was 29.4 µM and the TGI [54] was 27.9 µM.

With `CSc1nc(NC2OC(COC(C)=O)C(OC(C)=O)C(OC(C)=O)C2OC(C)=O)c(N=CC=Nc2c(NC3OC(COC(C)=O)C(OC(C)=O)C(OC(C)=O)C3OC(C)=O)nc(SC)[nH]c2=O)c(=O)[nH]1` (stereo unspecified) the TGI [1] was > 100 µM, the TGI [3] was > 100 µM and the TGI [56] was > 100 µM. For the same compound, the TGI [4] was > 100 µM, the TGI [5] was > 100 µM and the TGI [57] was > 100 µM. For the same compound, the TGI [6] was > 100 µM, the TGI [7] was > 100 µM and the TGI [8] was > 100 µM. For the same compound, the TGI [9] was > 100 µM, the TGI [10] was > 100 µM and the TGI [11] was > 100 µM. For the same compound, the TGI [12] was > 100 µM, the TGI [13] was > 100 µM and the TGI [14] was > 100 µM. For the same compound, the TGI [15] was > 100 µM, the TGI [16] was > 100 µM and the TGI [17] was > 100 µM. For the same compound, the TGI [18] was > 100 µM, the TGI [19] was > 100 µM and the TGI [20] was > 100 µM. For the same compound, the TGI [21] was > 100 µM, the TGI [22] was > 100 µM and the TGI [23] was > 100 µM. The TGI [24] was > 100 µM, the TGI [26] was > 100 µM and the TGI [27] was > 100 µM. The TGI [28] was > 100 µM, the TGI [29] was > 100 µM and the TGI [30] was > 100 µM. For the same compound, the TGI [31] was > 100 µM, the TGI [33] was > 100 µM and the TGI [34] was > 100 µM. For the same compound, the TGI [35] was > 100 µM, the TGI [36] was > 100 µM and the TGI [37] was > 100 µM. The TGI [38] was > 100 µM, the TGI [39] was > 100 µM and the TGI [40] was > 100 µM. For the same compound, the TGI [41] was > 100 µM, the TGI [43] was > 100 µM and the TGI [44] was > 100 µM. For the same compound, the TGI [45] was > 100 µM, the TGI [58] was > 100 µM and the TGI [46] was > 100 µM. For the same compound, the TGI [47] was > 100 µM, the TGI [48] was > 100 µM and the TGI [49] was > 100 µM. The TGI [50] was > 100 µM, the TGI [51] was > 100 µM and the TGI [52] was > 100 µM. For the same compound, the TGI [53] was > 100 µM, the TGI [54] was > 100 µM and the TGI [55] was > 100 µM.

In the case of `CCOC(OC1=C(C#N)CCC1)C(C)[Se]c1ccccc1` (stereo unspecified), the TGI [1] is reported as 67.4 µM, the TGI [2] is reported as > 100 µM and the TGI [3] is reported as 51.9 µM. For the same compound, the TGI [56] was > 100 µM, the TGI [4] was > 100 µM and the TGI [5] was 35.2 µM. The TGI [57] was 34.7 µM, the TGI [6] was 53.1 µM and the TGI [7] was > 100 µM. It also gave a TGI [8] of 68.8 µM, a TGI [9] of 42.5 µM and a TGI [10] of 34 µM. The TGI [11] was 33.4 µM, the TGI [12] was > 100 µM and the TGI [13] was > 100 µM. The TGI [14] was 73.8 µM, the TGI [15] was 14.2 µM and the TGI [16] was 29.7 µM. It also gave a TGI [17] of 22.9 µM, a TGI [18] of 21.5 µM and a TGI [19] of 34.8 µM. The TGI [20] was 43.9 µM, the TGI [21] was 82.6 µM and the TGI [22] was > 100 µM. The TGI [23] was > 100 µM, the TGI [24] was 41 µM and the TGI [25] was 43.7 µM. The TGI [26] was 26.6 µM, the TGI [27] was 71.6 µM and the TGI [28] was 30.9 µM. For the same compound, the TGI [29] was > 100 µM, the TGI [30] was > 100 µM and the TGI [31] was 27.8 µM. The TGI [32] was > 100 µM, the TGI [33] was 35.8 µM and the TGI [34] was 42.4 µM. For the same compound, the TGI [35] was > 100 µM, the TGI [36] was 26.3 µM and the TGI [37] was 87.6 µM. For the same compound, the TGI [38] was 55.3 µM, the TGI [39] was 96.2 µM and the TGI [40] was > 100 µM. For the same compound, the TGI [41] was 30.5 µM, the TGI [42] was 51.7 µM and the TGI [43] was 96.9 µM. For the same compound, the TGI [44] was 46 µM, the TGI [45] was > 100 µM and the TGI [58] was > 100 µM. It also gave a TGI [46] of 49.3 µM, a TGI [47] of 35.9 µM and a TGI [49] of 77.9 µM. The TGI [50] was > 100 µM, the TGI [51] was 46.6 µM and the TGI [52] was > 100 µM. For the same compound, the TGI [53] was 26.7 µM, the TGI [54] was > 100 µM and the TGI [55] was > 100 µM.
